{"source": "patent US5144017A", "about": "“Compounds that bind to digitalis receptor” (University of Manitoba, priority 1988, dated 1992)", "key": {"[1]": {"details": "prior art; cited from earlier work"}, "[2]": {"details": "prior art; cited from earlier work", "remark": "listed apart in the source"}, "[3]": {"target": "cardiac glycoside (CG) binding site (digitalis receptor) of heart muscle", "assay": "3H-ouabain radioligand binding assay (RBA)", "set-up": "species or system dog", "details": "for IC50: cardiac receptor of heart muscle, membranes from dog myocardium, read-out: binding / displacement potency in the 3H-ouabain RBA (IC50); for receptor potency relative to the aglycone: glucoside versus aglycone", "method": "An extensive study has been conducted by the inventors with respect to a wide series of steroids of the pregnane and androstane type. The potencies of these steroids were determined in a ^3 H-ouabain radioligand binding assay (RBA). Past experience has indicated to the inventors that the potency of the steroids to displace the labelled cardiac glycoside (i.e. ouabain) in the assay parallel their biological activity, that is their cardiac glycoside-like activity in the ability to inhibit Na/K-ATPase and elicit characteristic cellular response.\nBinding studies were carried out in a ^3 H-ouabain radioligand binding assay (RBA) generally as described by Chow et al in Br. J. Pharmac. (1979), 67, 345 to 352. The results obtained are set forth in the Examples below:\nA number of progesterone derivatives, having a 17α-acetoxy group and various functions at C-3 and C-6, interact at the cardiac glycoside (CG) binding site, as measured by the RBA with membranes from dog myocardium. Experimental values are given in the Table of FIG. 4 and structures in FIG. 3. The inventors have carried out structure-activity studies concerned with modification of the A and B rings as they influence potency in the RBA. As may be seen from the data, some progesterone derivatives with 5α- or 5β-stereochemistry show receptor competing activity. Among the congeners, highest potency is associated with the presence of C-4 or C-4,6-unsaturation and a C-6 substituent (CH3, Cl, Br). The C-3 function may be carbonyl, 3β-hydroxy, 3β-acetoxy or β-D-glucoside when associated with C-4 or C-4,6 unsaturation. In compounds with other substituents that promote activity, C-6α-substitution with --CH3, --Cl or --Br strongly enhance activity, --F, --OCH3, carbonyl or the unsubstituted compound promotes weak binding, and --OC2 H5, --OAc, --OCOOCH3 or --OH eliminates binding activity. Receptor interaction with the double bond at C-4, but not C-5, appears to be particularly important for binding."}, "[4]": {"test_system": "isolated heart muscle", "assay": "cardiostimulation in isolated heart muscle", "from_the_text": "Differences in toxicity, i.e. the tolerance to increasingly-greater dosage levels before the onset of arrhythmia, exist among the various steroid glycosides."}, "[5]": {"test_system": "canine ventricular trabeculae muscle", "assay": "contractile (inotropic) response of canine ventricular trabeculae muscle"}, "[6]": {"assay": "intrarenal infusion: urine volume, sodium and potassium excretion", "assay_type": "in vivo", "from_the_text": "The effects of an intrarenal infusion of ouabain and 14β-hydroxyprogesterone glucoside were compared. […] This marked natriuresis and absence of kaliuresis by the cardiotonic pregnane has practical clinical implications. […]"}, "[7]": {"test_system": "Na/K-ATPase", "details": "prior art; cited from earlier work"}, "[8]": {"details": "prior art; cited from earlier work", "remark": "listed apart in the source"}, "[9]": {"details": "listed as β-D-glucoside of 14β-hydroxyprogesterone"}}, "data": [{"smiles": "C[C@@H]1O[C@@H](O[C@H]2CC[C@@]3(C)[C@H](CC[C@@H]4[C@@H]3CC[C@]3(C)[C@@H]([C@@H](C)O)CC[C@]43N)C2)[C@H](O)[C@H](O)[C@H]1O", "note": "[3β-rhamnosyloxy-14β-amino-5β-pregnane-20β-ol]", "values": [{"measurement": "effect on cardiac contractility compared with digoxin", "setting": "[1]", "result": "superior, in terms of tolerance to higher dosage"}, {"measurement": "potency compared with the cardiac glycosides", "setting": "[2]", "result": "as potent as the cardiac glycosides"}]}, {"smiles": "CC(=O)[C@H]1CC[C@]2(O)[C@@H]3CC[C@@H]4CC(=O)CC[C@]4(C)[C@H]3CC[C@]12C", "note": "[compound 3]", "values": [{"measurement": "IC50", "setting": "[3]", "result": 60, "unit": "µM"}, {"measurement": "binding activity in the RBA, in words", "setting": "[3]; qualitative statement", "result": "weaker than 14β-hydroxyprogesterone"}, {"measurement": "cardiostimulation", "setting": "[4]", "result": "cardiostimulant"}]}, {"smiles": "CC(=O)[C@H]1CC[C@]2(O)[C@@H]3CCC4=CC(=O)CC[C@]4(C)[C@H]3CC[C@]12C", "note": "[compound 6, 14β-hydroxyprogesterone]", "values": [{"measurement": "IC50", "setting": "[3]", "result": 10, "unit": "µM"}, {"measurement": "cardiostimulation", "setting": "[4]", "result": "elicits cardiostimulation"}]}, {"smiles": "CC(=O)[C@H]1CC[C@]2(O)[C@@H]3CCC4=C[C@@H](O[C@@H]5O[C@H](CO)[C@@H](O)[C@H](O)[C@H]5O)CC[C@]4(C)[C@H]3CC[C@]12C", "note": "[compound 8]", "values": [{"measurement": "IC50", "setting": "[3]", "result": 1.8, "unit": "µM"}, {"measurement": "receptor potency relative to the aglycone", "setting": "[3]; listed as 14β-OHP-glu", "result": "about 10 times"}, {"measurement": "receptor potency relative to the aglycone", "setting": "[3]; [9]", "result": "approximately ten"}, {"measurement": "inotropic response", "setting": "[5]; dose dependent", "result": "positive inotropic response"}, {"measurement": "after contractions on rapid electrical stimulation (digitalis-like toxic response)", "setting": "[5]; during peak inotropic response and subsequent depression", "result": "possible to elicit spontaneous after contraction(s)"}, {"measurement": "contractile response at high concentrations", "setting": "[5]; high concentrations", "result": "biphasic contractile response, an initial increase followed by a decrease"}, {"measurement": "urine volume", "setting": "[6]", "result": "increased urine volume"}, {"measurement": "potassium excretion", "setting": "[6]; listed as 14β-OHP-glu", "result": "no influence on potassium excretion"}, {"measurement": "sodium excretion", "setting": "[6]; listed as 14β-OHP-glu", "result": "increased sodium excretion significantly"}, {"measurement": "potassium excretion", "setting": "[6]; [9]", "result": "little effect on potassium excretion"}, {"measurement": "sodium excretion", "setting": "[6]; [9]", "result": "increased sodium excretion"}]}, {"smiles": "CC(=O)O[C@]1(C(C)=O)CC[C@H]2[C@@H]3C=C(Cl)C4=CC(=O)CC[C@]4(C)[C@H]3CC[C@@]21C", "note": "[compound 20, 17α-acetoxy-6-chloropregna-4,6-diene-3,20-dione, reference compound]", "values": [{"measurement": "IC50", "setting": "[3]", "result": 0.5, "unit": "µM"}, {"measurement": "potency in the RBA relative to ouabain", "setting": "[3]; fraction of the potency of ouabain", "result": "1/20"}, {"measurement": "affinity / potency at Na/K-ATPase", "setting": "[7]", "result": "high affinity"}, {"measurement": "effect on cardiac contractility", "setting": "[8]", "result": "cardiodepression or decreased contractility"}]}]}
